From US9802895B2, “Indole and benzimidazolecarboxamides as insecticides and acaricides” (BAYER CROPSCIENCE AKTIENGESELLSCHAFT, priority 2014, dated 2017)

Tests used:
[1] = system: adult cat fleas (Ctenocephalides felis); assay: Ctenocephalides felis oral test (CTECFE); format: in vivo; conditions: 100 ppm, oral in cattle blood, after 2 days
Description: Ctenocephalides felis-Oral Test ([…]) Solvent: dimethyl sulphoxide To produce a suitable active compound formulation, 10 mg of active compound are mixed with 0.5 ml of dimethyl sulphoxide. Dilution with citrated cattle blood gives the desired concentration. About 20 unfed adult cat fleas (Ctenocephalides felis) are placed into a chamber which is closed at the top and bottom with gauze. A metal cylinder whose bottom end is closed with parafilm is placed onto the chamber. The cylinder contains the blood/active compound preparation, which can be imbibed by the fleas through the parafilm membrane. After 2 days, the kill in % is determined 100% means that all of the fleas have been killed; 0% means that none of the fleas have been killed.

[2] = system: caterpillars of the armyworm (Spodoptera frugiperda); assay: Spodoptera frugiperda spray test (SPODFR); format: in vivo; conditions: for efficacy: 100 g/ha, spray, after 7 days; for % efficacy: SPODFR, 7 dat
Description: Spodoptera frugiperda—Spray Test (SPODFR) Solvent: 78.0 parts by weight of acetone • • 1.5 parts by weight of dimethylformamide Emulsifier: alkylaryl polyglycol ether To produce a suitable active compound formulation, 1 part by weight of active compound is dissolved using the specified parts by weight of solvent and made up with water containing an emulsifier concentration of 1000 ppm until the desired concentration is attained. To produce further test concentrations, the preparation is diluted with emulsifier-containing water. Leaf discs of maize (Zea mays) are sprayed with an active compound formulation of the desired concentration and, after drying, populated with caterpillars of the armyworm (Spodoptera frugiperda). After 7 days, the efficacy in % is determined 100% means that all the caterpillars have been killed; 0% means that no caterpillars have been killed. Spodoptera frugiperda—Spray Test (SPODFR) Solvent: 78.0 parts by weight of acetone • • 1.5 parts by weight of dimethylformamide Emulsifier: alkylaryl polyglycol ether To produce a suitable active compound formulation, 1 part by weight of active compound is dissolved using the specified parts by weight of solvent and made up with water containing an emulsifier concentration of 1000 ppm until the desired concentration is attained. To produce further test concentrations, the preparation is diluted with emulsifier-containing water. Leaf discs of maize (Zea mays) are sprayed with an active compound formulation of the desired concentration and, after drying, populated with caterpillars of the armyworm (Spodoptera frugiperda). After the desired period of time, the efficacy in % is determined. 100% means that all the caterpillars have been killed; 0% means that no caterpillars have been killed.

[3] = log P by HPLC (EEC directive 79/831 Annex V.A8); format: physicochemical; conditions: HPLC, reversed-phase column (C18), 43° C., acidic range pH 2.7
Description: a) The determination of the M^+ by LC-MS in the acidic range is effected at pH 2.7, acetonitrile (contains 0.1% formic acid) and water as eluents; linear gradient from 10% acetonitrile to 95% acetonitrile, instrument: Agilent 1100 LC system, Agilent MSD system, HTS PAL. The log P values reported in the tables and Preparation Examples above were determined in accordance with EEC directive 79/831 Annex V.A8 by HPLC (High Performance Liquid Chromatography) using a reversed-phase column (C18). Temperature 43° C. The calibration is effected with unbranched alkan-2-ones (having 3 to 16 carbon atoms), for which the logP values are known.

[4] = system: larvae of the mustard beetle (Phaedon cochleariae); assay: Phaedon cochleariae spray test (PHAECO); format: in vivo; conditions: 100 g/ha, after 7 days
Description: Phaedon cochleariae—Spray Test (PHAECO)
(§1) Solvent: 78.0 parts by weight of acetone • • 1.5 parts by weight of dimethylformamide
(§2) Emulsifier: alkylaryl polyglycol ether
(§3) To produce a suitable active compound formulation, 1 part by weight of active compound is dissolved using the specified parts by weight of solvent and made up with water containing an emulsifier concentration of 1000 ppm until the desired concentration is attained. To produce further test concentrations, the preparation is diluted with emulsifier-containing water.
After 7 days, the efficacy in % is determined. 100% means that all the beetle larvae have been killed; 0% means that no beetle larvae have been killed.

[5] = system: greenhouse red spider mite (Tetranychus urticae); assay: Tetranychus urticae spray test, OP-resistant (TETRUR); format: in vivo; conditions: for efficacy: 100 g/ha, spray, after 6 days; for % efficacy: TETRUR, 6 dat
Description: Tetranychus urticae—Spray Test, OP-Resistant (TETRUR)
as §1, §2, §3
Discs of bean leaves (Phaseolus vulgaris) infested by all stages of the greenhouse red spider mite (Tetranychus urticae) are sprayed with an active compound formulation of the desired concentration.
After 6 days, the efficacy in % is determined 100% means that all the spider mites have been killed; 0% means that none of the spider mites have been killed.
Tetranychus urticae—Spray Test; OP-Resistant (TETRUR)
After the desired period of time, the efficacy in % is determined 100% means that all the spider mites have been killed; 0% means that none of the spider mites have been killed.

[6] = system: adult houseflies (Musca domestica); assay: Musca domestica test (MUSCDO); format: in vivo; conditions: 100 ppm, after 2 days
Description: Musca domestica Test (MUSCDO) Solvent: dimethyl sulphoxide To produce a suitable active compound formulation, 10 mg of active compound are mixed with 0.5 ml of dimethyl sulphoxide, and the concentrate is diluted with water to the desired concentration. Vessels containing a sponge treated with sugar solution and the active compound preparation of the desired concentration are populated with 10 adult houseflies (Musca domestica). After 2 days, the kill in % is determined. 100% means that all of the flies have been killed; 0% means that none of the flies have been killed.

[7] = system: L1 larvae of the Australian sheep blowfly (Lucilia cuprina); assay: Lucilia cuprina test (LUCICU); format: in vivo; conditions: 100 ppm, after 2 days
Description: Lucilia cuprina Test (LUCICU) Solvent: dimethyl sulphoxide To produce a suitable active compound formulation, 10 mg of active compound are mixed with 0.5 ml of dimethyl sulphoxide, and the concentrate is diluted with water to the desired concentration. About 20 L1 larvae of the Australian sheep blowfly (Lucilia cuprina) are transferred into a test vessel containing minced horsemeat and the active compound preparation of the desired concentration. After 2 days, the kill in % is determined 100% means that all the larvae have been killed; 0% means that none of the larvae have been killed.

[8] = system: engorged adult female cattle ticks (Boophilus microplus); assay: Boophilus microplus injection test (BOOPMI inj); format: in vivo; conditions: assessed after 7 days
Description: Boophilus microplus Injection Test (BOOPMI inj) Solvent: dimethyl sulphoxide To produce a suitable active compound formulation, 10 mg of active compound are mixed with 0.5 ml of solvent and the concentrate is diluted with solvent to the desired concentration. 1 μl of the active compound solution is injected into the abdomen of 5 engorged adult female cattle ticks (Boophilus microplus). The animals are transferred into dishes and kept in a climate-controlled room. The efficacy is assessed after 7 days by laying of fertile eggs. Eggs which are not visibly fertile are stored in a climate-controlled cabinet until the larvae hatch after about 42 days. An efficacy of 100% means that none of the ticks has laid any fertile eggs; 0% means that all the eggs are fertile.

[9] = system: L2 larvae of the banded cucumber beetle (Diabrotica balteata); assay: Diabrotica balteata drench test (DIABBA); format: in vivo; conditions: 8 dat
Description: Diabrotica balteata—Drench Test (DIABBA) Solvent: 7 parts by weight of dimethylformamide Emulsifier: 2 parts by weight of alkylaryl polyglycol ether To produce a suitable active compound formulation, 1 part by weight of active compound is mixed with the specified amounts of solvent and emulsifier, and the concentrate is diluted with water to the desired concentration, it being necessary to include the volume of soil which is drenched in the calculation. It should be ensured that a concentration of 40 ppm of emulsifier in the soil is not exceeded. To produce further test concentrations, water is used for dilution. […] After one day, 25 L2 larvae of the banded cucumber beetle (Diabrotica balteata) are added. After 8 days, the efficacy in % is determined 100% means that all 5 plants have germinated and grown; 0% means that none of the plants has emerged.

| Structure (SMILES) | efficacy (kill in %) [1] [%] | efficacy [2] [%] | % efficacy ([2]; 0.8 g/ha) [%] | % efficacy ([2]; 4 g/ha) [%] | log P [3] | efficacy [4] [%] | efficacy [5] [%] | efficacy (kill in %) [6] [%] | efficacy (kill in %) [7] [%] | efficacy (laying of fertile eggs) [8] [%] | % efficacy ([5]; 4 g/ha) [%] | % efficacy ([5]; 20 g/ha) [%] | % efficacy ([9]; 4 ppm) [%] | % efficacy ([9]; 20 ppm) [%] |
| --- | --- | --- | --- | --- | --- | --- | --- | --- | --- | --- | --- | --- | --- | --- |
| CCn1c(C(=O)NC(c2ccc(F)c(C(F)(F)F)c2)C(F)(F)F)cc2cc(C(=O)NC3(C(N)=S)CC3)c(Cl)cc21 (centres unmarked) [I-03] | 100 | 100 | 100 | 100 | 3.70 | 100 | 90 | 100 | 100 | 100 |  |  |  |  |
| CCn1c(C(=O)NC(c2ccc(F)c(Cl)c2)C(F)(F)F)cc2cc(C(=O)NC3(C(N)=S)CC3)c(Cl)cc21 (centres unmarked) [I-04] | 100 | 100 | 100 | 100 | 3.57 | 100 | 100 | 100 | 100 | 100 |  |  |  |  |
| CCn1c(C(=O)NC(c2cc(Cl)c(Cl)c(Cl)c2)C(F)(F)F)cc2cc(C(=O)NC3(C(N)=S)CC3)c(Cl)cc21 (centres unmarked) [I-05] | 100 | 100 |  |  | 4.33 | 100 | 90 | 100 | 100 | 100 |  |  |  |  |
| CCn1c(C(=O)NC(c2ccc(Cl)c(C(F)(F)F)c2)C(F)(F)F)cc2cc(C(=O)NC3(C(N)=S)CC3)c(Cl)cc21 (centres unmarked) [I-07] | 100 | 100 | 67 | 100 | 3.96 | 100 | 100 | 100 | 100 | 100 |  |  |  |  |
| CCn1c(C(=O)NC(c2cc(F)c(Cl)c(Cl)c2)C(F)(F)F)cc2cc(C(=O)NC3(C(N)=S)CC3)c(Cl)cc21 (centres unmarked) [I-09] | 100 | 100 |  |  | 4.02 | 100 | 100 | 100 | 100 | 100 |  |  |  |  |
| CCn1c(C(=O)NC(c2cc(F)cc(C(F)(F)F)c2)C(F)(F)F)cc2cc(C(=O)NC3(C(N)=S)CC3)c(Cl)cc21 (centres unmarked) [I-10] | 100 | 100 | 100 | 100 | 3.81 | 100 | 100 | 100 | 100 | 100 |  |  |  |  |
| CCn1c(C(=O)NC(c2ccc(Cl)c(C(F)(F)F)c2)C(F)(F)F)cc2cc(C(=O)NC3(C(N)=S)CC3)c(C)cc21 (centres unmarked) [I-13] | 100 | 100 |  |  | 3.89 | 100 | 100 | 100 | 100 | 100 |  |  |  |  |
| CCn1c(C(=O)NC(c2cc(Cl)cc(C(F)(F)F)c2)C(F)(F)F)cc2cc(C(=O)NC3(C(N)=S)CC3)c(Cl)cc21 (centres unmarked) [I-22] | 100 | 100 | 100 | 100 | 4.11 | 100 | 100 | 100 | 100 | 100 | 100 | 100 | 50 | 100 |
| CCn1c(C(=O)NC(c2cc(Cl)cc(Cl)c2)C(F)F)cc2cc(C(=O)NC3(C(N)=S)CC3)c(Cl)cc21 (centres unmarked) [I-24] | 100 | 100 |  |  | 3.65 | 100 | 100 | 80 | 100 | 100 |  |  |  |  |
| CCn1c(C(=O)NC(c2cc(Cl)c(F)c(F)c2F)C(F)(F)F)cc2cc(C(=O)NC3(C(N)=S)CC3)c(Cl)cc21 (centres unmarked) [I-26] | 100 | 100 |  |  | 3.99 | 100 | 100 | 100 | 100 | 100 |  |  |  |  |
| CCn1c(C(=O)NC(c2cc(F)c(Cl)c(Cl)c2F)C(F)(F)F)cc2cc(C(=O)NC3(C(N)=S)CC3)c(Cl)cc21 (centres unmarked) [I-27] | 100 | 100 |  |  | 4.28 | 100 | 100 | 100 | 100 | 100 |  |  |  |  |
| CCn1c(C(=O)NC(c2cc(F)c(Cl)c(F)c2F)C(F)(F)F)cc2cc(C(=O)NC3(C(N)=S)CC3)c(Cl)cc21 (centres unmarked) [I-31] | 100 | 100 |  |  | 4.02 | 100 | 100 | 100 | 100 | 100 |  |  |  |  |
